Laboratory results from US20250197403A1, “HETEROARYL COMPOUNDS FOR TREATMENT OF COMPLEMENT FACTOR D MEDIATED DISORDERS” (Achillion Pharmaceuticals, Inc., priority 2020, published 2025).

Molecular target: Human Factor D (Homo sapiens (Human), UniProt P00746)
Assay: Human Factor D Assay
Type: biochemical
Conditions: Human Factor D 80 nM, substrate Z-L-Lys-SBzl, assay according to Example 3
Description: The assay according to Example 3 was used to determine the IC50's of the compounds. Other standard factor D inhibition assays are also available.
Human Factor D (purified from human serum, Complement Technology, Inc.) at 80 nM final concentration is incubated with test compound at various concentrations for 5 min at room temperature in 50 mM Tris, 1M NaCl, pH 7.5. A synthetic substrate Z-L-Lys-SBzl and DTNB (Ellman's reagent) are added to final concentrations of 100 μM each. Absorbance at 405 nm (A405) is recorded at 30 second intervals for 30 min using a microplate spectrophotometer. IC50 values are calculated by nonlinear regression of complement Factor D reaction rates as a function of test compound concentration.

Chain of Human Factor D (P00746 26-253): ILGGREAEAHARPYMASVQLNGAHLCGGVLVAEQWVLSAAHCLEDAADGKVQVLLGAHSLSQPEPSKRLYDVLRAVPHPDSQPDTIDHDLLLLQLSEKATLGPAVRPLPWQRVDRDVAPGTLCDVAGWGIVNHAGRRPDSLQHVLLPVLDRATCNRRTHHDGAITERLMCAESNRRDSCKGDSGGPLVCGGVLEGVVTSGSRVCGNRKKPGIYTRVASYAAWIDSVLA

Row | SMILES | IC50 [µM]
1 | CC(=O)c1cn(CC(=O)N2C[C@H](F)C[C@H]2C(=O)N[C@@H](C)C(F)=C(C)C)c2c(C)cc(-c3cnc4cc(C)nn4c3)cc12 [Compound 37, (2S,4R)-1-(2-(3-acetyl-7-methyl-5-(2-methylpyr-azolo[1,5-a]pyrimidin-6-yl)-1H-indol-1-yl)acetyl)-4-fluoro-N-((S)-3-fluoro-4-methylpent-3-en-2-yl)pyr-rolidine-2-carboxamide] | < 1
2 | CC(=O)c1cn(CC(=O)N2C[C@H]3C[C@H]3[C@H]2C(=O)N[C@@H](C)C(F)=C(C)C)c2c(C)cc(-c3cnc4cc(C)nn4c3)cc12 [Compound 38, (1R,2S,5S)-3-(2-(3-acetyl-7-methyl-5-(2-methylpyr-azolo[1,5-a]pyrimidin-6-yl)-1H-indol-1-yl)acetyl)-N-((S)-3-fluoro-4-methyl-pent-3-en-2-yl)-3-azabi-cyclo[3.1.0]hexane-2-car-boxamide] | < 1
3 | CC(=O)c1cn(CC(=O)N2[C@H](C(=O)N[C@@H](C)C(F)=C(C)C)C[C@@]3(C)C[C@@H]23)c2c(C)nc(-c3cnc(C)nc3)cc12 [Compound 39, (1R,3S,5R)-2-(2-(3-acetyl-7-methyl-5-(2-methylpyr-imidin-5-yl)-1H-pyrrolo [2,3-c]pyridin-1-yl)acetyl)-N-((S)-3-fluoro-4-methyl-pent-3-en-2-yl)-5-methyl-2-azabicyclo[3.1.0]hexane-3-carboxamide] | < 1
4 | COCc1ccc(C(F)(F)F)nc1NC(=O)[C@@H]1C[C@@]2(C)C[C@H]2N1C(=O)Cn1cc(C(C)=O)c2cc(-c3ccc4nc(C)nn4c3)cc(C)c21 [Compound 40, (1R,3S,5R)-2-(2-(3-acetyl-7-methyl-5-(2-methyl-[1,2,4]triazolo[1,5-a]pyr-idin-6-yl)-1H-indol-1-yl)-acetyl)-N-(3-(methoxy-methyl)-6-(trifluorometh-yl)pyridin-2-yl)-5-methyl-2-azabicyclo[3.1.0]hexane-3-carboxamide] | < 1
5 | COCc1ccc(C(F)(F)F)nc1NC(=O)[C@@H]1C[C@@]2(C)C[C@H]2N1C(=O)Cn1cc(C(C)=O)c2cc(-c3cnc(C)nc3)nc(C)c21 [Compound 41, (1R,3S,5R)-2-(2-(3-acetyl-7-methyl-5-(2-methylpyr-imidin-5-yl)-1H-pyrrolo [2,3-c]pyridin-1-yl)acetyl)-N-(3-(methoxymethyl)-6-(trifluoromethyl)pyridin-2-yl)-5-methyl-2-azabicyclo [3.1.0]hexane-3-carbox-amide] | < 1
6 | CC(=O)c1cn(CC(=O)N2[C@H](C(=O)Nc3nc(C(F)(F)F)ccc3Cl)C[C@@]3(C)C[C@@H]23)c2c(C)nc(-c3cnc(C)nc3)cc12 [Compound 42, (1R,3S,5R)-2-(2-(3-acetyl-7-methyl-5-(2-methylpyr-imidin-5-yl)-1H-pyrrolo [2,3-c]pyridin-1-yl)acetyl)-N-(3-chloro-6-(trifluoro-methyl)pyridin-2-yl)-5-methyl-2-azabicyclo[3.1.0] hexane-3-carboxamide] | < 1
7 | CC(=O)c1cn(CC(=O)N2[C@H](C(=O)Nc3nc(C(F)(F)F)ccc3C)C[C@@]3(C)C[C@@H]23)c2c(CO)cc(-c3cnc4cc(C)nn4c3)cc12 [Compound 43, (1R,3S,5R)-2-(2-(3-acetyl-7-(hydroxymethyl)-5-(2-methylpyrazolo[1,5-a]pyr-imidin-6-yl)-1H-indol-1-yl)acetyl)-5-methyl-N-(3-methyl-6-(trifluorometh-yl)pyridin-2-yl)-2-azabi-cyclo[3.1.0]hexane-3-car-boxamide] | < 1
8 | CC(=O)c1cn(CC(=O)N2[C@H](C(=O)Nc3nc(C(F)(F)F)ccc3C)C[C@@]3(C)C[C@@H]23)c2c(C)c(F)c(-c3cnc(C)nc3)cc12 [Compound 44, (1R,3S,5R)-2-(2-(3-acetyl-6-fluoro-7-methyl-5-(2-methylpyrimidin-5-yl)-1H-indol-1-yl)acetyl)-5-meth-yl-N-(3-methyl-6-(tri-fluoromethyl)pyridin-2-yl)-2-azabicyclo[3.1.0] hexane-3-carboxamide] | < 1
9 | CC(=O)c1cn(CC(=O)N2[C@H](C(=O)Nc3cncc(C(F)(F)F)n3)C[C@@]3(C)C[C@@H]23)c2c(C)cc(-c3cnc(C)nc3)cc12 [Compound 45, (1R,3S,5R)-2-(2-(3-acetyl-7-methyl-5-(2-methylpyr-imidin-5-yl)-1H-indol-1-yl)acetyl)-5-methyl-N-(6-(trifluoromethyl)pyrazin-2-yl)-2-azabicyclo[3.1.0] hexane-3-carboxamide] | < 1
10 | CC(=O)c1cn(CC(=O)N2[C@H](C(=O)Nc3nc(C(F)(F)F)ccc3C)C[C@@]3(C)C[C@@H]23)c2c(CF)cc(-c3cnc4cc(C)nn4c3)cc12 [Compound 46, (1R,3S,5R)-2-(2-(3-acetyl-7-(fluoromethyl)-5-(2-methylpyrazolo[1,5-a]pyr-imidin-6-yl)-1H-indol-1-yl)acetyl)-5-methyl-N-(3-methyl-6-(trifluorometh-yl)pyridin-2-yl)-2-azabi-cyclo[3.1.0]hexane-3-car-boxamide] | < 1
11 | CC(=O)c1cn(CC(=O)N2[C@H](C(=O)Nc3nc(Br)ccc3Cl)C[C@@]3(C)C[C@@H]23)c2c(C)cc(-c3cnc4cc(C)nn4c3)cc12 [Compound 47, (1R,3S,5R)-2-(2-(3-acetyl-7-methyl-5-(2-methylpyr-azolo[1,5-a]pyrimidin-6-yl)-1H-indol-1-yl)acetyl)-N-(6-bromo-3-chloropyr-idin-2-yl)-5-methyl-2-aza-bicyclo[3.1.0]hexane-3-carboxamide] | < 1
12 | CC(=O)c1cn(CC(=O)N2[C@H](C(=O)Nc3nc(C(F)(F)F)ccc3C)C[C@@]3(C)C[C@@H]23)c2c(C)c(F)c(-c3cnc4cc(C)nn4c3)cc12 [Compound 49, (1R,3S,5R)-2-(2-(3-acetyl-6-fluoro-7-methyl-5-(2-methylpyrazolo[1,5-a]pyr-imidin-6-yl)-1H-indol-1-yl)acetyl)-5-methyl-N-(3-methyl-6-(trifluorometh-yl)pyridin-2-yl)-2-azabi-cyclo[3.1.0]hexane-3-car-boxamide] | < 1
13 | CC(=O)c1cn(CC(=O)N2[C@H](C(=O)Nc3nc(Br)ccc3C)C[C@@]3(C)C[C@@H]23)c2c(C)c(F)c(-c3cnc4cc(C)nn4c3)cc12 [Compound 50, (1R,3S,5R)-2-(2-(3-acetyl-6-fluoro-7-methyl-5-(2-methylpyrazolo[1,5-a]pyr-imidin-6-yl)-1H-indol-1-yl)acetyl)-N-(6-bromo-3-methylpyridin-2-yl)-5-methyl-2-zabicyclo[3.1.0] hexane-3-carboxamide] | < 1
14 | CC(=O)c1cn(CC(=O)N2[C@H](C(=O)Nc3nc(C(F)(F)F)ccc3Cl)C[C@@]3(C)C[C@@H]23)c2c(C)cc(-c3cnc4cc(C)nn4c3)cc12 [Compound 51, (1R,3S,5R)-2-(2-(3-acetyl-7-methyl-5-(2-methylpyr-azolo[1,5-a]pyrimidin-6-yl)-1H-indol-1-yl)acetyl)-N-(3-chloro-6-(trifluoro-methyl)pyridin-2-yl)-5-methyl-2-azabicyclo[3.1.0] hexane-3-carboxamide] | < 1
15 | COCc1ccc(C(F)(F)F)nc1NC(=O)[C@@H]1C[C@@]2(C)C[C@H]2N1C(=O)Cn1cc(C(C)=O)c2cc(-c3cnc(C)nc3)cc(C)c21 [Compound 52, (1R,3S,5R)-2-(2-(3-acetyl-7-methyl-5-(2-methylpyr-imidin-5-yl)-1H-indol-1-yl)acetyl)-N-(3-(methoxy-methyl)-6-(trifluorometh-yl)pyridin-2-yl)-5-methyl-2-azabicyclo[3.1.0]hexane-3-carboxamide] | < 1
16 | COCc1ccc(C(F)(F)F)nc1NC(=O)[C@@H]1C[C@@]2(C)C[C@H]2N1C(=O)Cn1cc(C(C)=O)c2cc(-c3cnc4cc(C)nn4c3)cc(C)c21 [Compound 53, (1R,3S,5R)-2-(2-(3-acetyl-7-methyl-5-(2-methylpyr-azolo[1,5-a]pyrimidin-6-yl)-1H-indol-1-yl)acetyl)-N-(3-(methoxymethyl)-6-(trifluoromethyl)pyridin-2-yl)-5-methyl-2-azabicyclo [3.1.0]hexane-3-carbox-amide] | < 1
17 | CC(=O)c1cn(CC(=O)N2[C@H](C(=O)Nc3nc(C(F)(F)F)cc(F)c3C)C[C@@]3(C)C[C@@H]23)c2c(C)cc(-c3cnc(C)nc3)cc12 [Compound 54, (1R,3S,5R)-2-(2-(3-acetyl-7-methyl-5-(2-methylpyr-imidin-5-yl)-1H-indol-1-yl)acetyl)-N-(4-fluoro-3-methyl-6-(trifluorometh-yl)pyridin-2-yl)-5-methyl-2-azabicyclo[3.1.0]hexane-3-carboxamide] | < 1
18 | CC(=O)c1cn(CC(=O)N2[C@H](C(=O)Nc3nc(C(F)(F)F)ccc3C)C[C@@]3(C)C[C@@H]23)c2c(C)nc(-c3cnc4cc(C)nn4c3)cc12 [Compound 55, (1R,3S,5R)-2-(2-(3-acetyl-7-methyl-5-(2-methylpyr-azolo[1,5-a]pyrimidin-6-yl)-1H-pyrrolo[2,3-c]pyr-idin-1-yl)acetyl)-5-methyl-N-(3-methyl-6-(trifluoro-methyl)pyridin-2-yl)-2-azabicyclo[3.1.0]hexane-3-carboxamide] | < 1
19 | CC(=O)c1cn(CC(=O)N2[C@H](C(=O)Nc3nc(C(F)(F)F)ccc3C)C[C@@]3(C)C[C@@H]23)c2c(C)nc(-c3ccc4nc(C)nn4c3)cc12 [Compound 56, (1R,3S,5R)-2-(2-(3-acetyl-7-methyl-5-(2-methyl-[1,2,4]triazolo[1,5-a]pyr-idin-6-yl)-1H-pyrrolo[2,3-c]pyridin-1-yl)acetyl)-5-methyl-N-(3-methyl-6-(trifluoromethyl)pyridin-2-yl)-2-azabicyclo[3.1.0] hexane-3-carboxamide] | < 1
